The results in this text go back to patent publication US20250241838A1, “COSMETIC COMPOSITION FOR WITH ANTI-GLYCATION EFFECT FOR ENHANCING SKIN RESISTANCE TO AGING” (L'OREAL, priority 2024, published 2025).

“Also recorded” adds a separate entry of the source. Read-outs that look alike come from different tables or passages of the source.

This assay deals with BSA (bovine serum albumin). Nature of the assay: In vitro/in tubo glycation study: BSA + D-ribose, fluorescence intensity. The class given is biochemical. How it is done: A study was conducted in vitro/in tubo to evaluate if the ingredients of the inventive composition have anti-glycation effects in an in tubo environment.
The in tubo experiments were conducted to evaluate glycation of BSA (bovine serum albumin) under control conditions and with exposure to an embodiment of the inventive composition. Samples were prepared, including inventives, comparatives, baseline, and positive and negative controls.
A test plate was prepared with discrete wells for receiving each of the test compositions. Solutions representing the active ingredient concentrations listed under “Ingredient” in Table 3, below, were added to a well containing BSA+D-ribose (the Indicator Solution) and PBS. The total amount of Test Solutions added for the inventive compositions was always the same for all tests-25 microliters-5 microliters of each Test Solution (Ingredient) per well. PBS was used as the solvent for the Test Solution. Plates were prepared in triplicate.
Tested Compositions: Blank: PBS+BSA, Negative control: PBS+BSA+D-ribose, Positive control: PBS+BSA+D-ribose+Aminoguanidine, Five Inventive […]
Samples were plated in triplicate and readings taken at the indicated wavelength at day 1 and day 14.
Evaluations of Fluorescent Intensity were made at ex 370 nm/em 440 nm
Samples were evaluated at time intervals of 0 days, 3 days, 14 Days, 21 Days. The main purpose of incorporating time intervals is to provide sufficient duration for capturing the anti-glycation effect. It is crucial to build in multiple time points to adequately capture the anti-glycation effects since they can vary depending on the specific ingredients used.
Magnitude of fluorescence intensity is positively indicative of extent of glycation. Glycation is expected to be maximal with negative control (BSA plus D-ribose), while glycation of positive control with known antiglycation agent, Aminoguanidine, is expected to be reduced relative to negative control.
Evaluation of anti-glycation effect of individual ingredients: each of Activated C, Dandelion Extract, Caffeine, Lavender Oil, and Vitamin E (5 microliter quantities) were plated with 245 microliter of [PBS+BSA+D-ribose]. Concentrations of each ingredient added to the wells were as follows Activated C (100%, 50%, 10%, 5% and 1%), Dandelion Extract (100%, 50%, 30%, 15% and 3%), Caffeine (2%, 1.5%, 1%, 0.5% and 0.1%), Lavender Oil (100%, 50%, 0.15%, 0.08% and 0.15%), and Vitamin E (100%, 50%, 1%, 0.5% and 0.1%).

[1] abbreviates: each ingredient alone, 5 microliter plated with 245 microliter PBS+BSA+D-ribose, five concentrations each, data not shown.

As to `CCOC1=C(O)C(=O)O[C@@H]1[C@@H](O)CO` [Activated C, 3-O-ETHYL ASCORBIC ACID], the “anti-glycation effect of individual ingredients” value (“anti-glycation effect” below) was “glycation effect only at high levels” under setting [1] and “reduction of glycation at high doses only” (each ingredient alone, 5 microliter plated with 245 microliter PBS+BSA+D-ribose, five concentrations each, data not shown, listed as Ascorbic acid). For `Cn1c(=O)c2c(ncn2C)n(C)c1=O` [Caffeine], the “anti-glycation effect” value is reported as “no glycation effect; also recorded: no significant reduction in glycation”. On to `N=C(N)NN` [Positive control, Aminoguanidine], for which the Fluorescence intensity (day 14 readings, ex 370 nm/em 440 nm, PBS+BSA+D-ribose, intensity positively indicative of extent of glycation) is 2.921. For the setting “day 14 readings, relative to negative control (PBS+BSA+D-ribose)”, the “Percent reduction in glycation (%)” value was determined as 23%. Consider tocopherol [Vitamin E], for which the “anti-glycation effect” value runs as follows: under setting [1], “no glycation effect”; (each ingredient alone, 5 microliter plated with 245 microliter PBS+BSA+D-ribose, five concentrations each, data not shown, listed as vitamin E) “no significant reduction in glycation”.
